The values that follow come from US11414416B1, “Compounds and uses thereof” (Foghorn Therapeutics Inc., priority 2019, dated 2022).

In general, IC50 refers to the point on the concentration scale where inhibition reaches its midpoint. A lower IC50 goes with inhibition by little substance.

Assay [1] concerns the target BRD9 bromodomain (Homo sapiens (Human), UniProt Q9H8M2). The assay is described as follows: BRD9 bromodomain TR-FRET competition binding assay. The settings on record: Table 4; competition with biotinylated ligand, 3 nM Flag-BRD9, 90 minutes. The method, then: Procedure: His-Flag-BRD9 (P133-K239; Swiss Prot Q9H8M2; SEQ ID NO:1 mgsshhhhhhenlyfq/gdykddddkgslevlfqg/[…] […]) was cloned, expressed, purified, and then treated with TEV protease. Cleaved His tag was removed by purification. The binding of a biotinylated small molecule ligand of BRD9 was assessed via the LANCE® TR-FRET platform (PerkinElmer), and the compounds were assayed for inhibitory activity against this interaction.
A mixture of biotinylated-ligand and SureLight™ Allophycocyanin-Streptavidin (APC-SA, PerkinElmer AD0201) in 50 mM HEPES (pH 7.4), 50 mM NaCl, 1 mM TCEP (pH 7), 0.01% (v/v) Tween-20, 0.01% (w/v) bovine serum albumin was added to a white 384-well PerkinElmer Proxiplate Plus plate. DMSO or 3-fold serially diluted compounds were then added to the Proxiplate followed by addition of Flag-BRD9. After a 10-minute incubation at room temperature, Eu-W1024 anti-FLAG (PerkinElmer, AD0273) was added. The final reaction mixture that contained 3.75 nM biotinylated ligand, 3 nM Flag-BRD9, 7.5 nM SureLight™ Allophycocyanin-Streptavidin, and 0.2 nM Eu-W1024 anti-FLAG was incubated at room temperature for 90 minutes.
Results: The plates were then read on a PerkinElmer Envision plate reader to determine the ratio of emission at 665 nm over 615 nm. […]
A general note: TR-FRET usually uses a lanthanide donor and a delayed reading to cut background.

Assay [2] has as its target Nanoluciferase-BRD9 fusion protein (Homo sapiens (Human), UniProt Q9H8M2). Put plainly: SYO1 BRD9 NanoLuc degradation assay. In kind it is cell-based. The settings on record: Table 5A, SYO-1 cells expressing 3×FLAG-NLuc-BRD9, 6 hours; for DC50: read-out: SYO1 BRD9-NanoLuc degradation IC50. The gist of the method: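 Degradation was read as loss of nanoluciferase signal (Nano-Glo) after 6 h compound exposure in a stable SYO-1 line carrying 3×FLAG-NLuc-BRD9 (8000 cells/well). Normalised between DMSO (high) and a 1 μM known BRD9 degrader (low).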

Sequence of Nanoluciferase-BRD9 fusion protein (Q9H8M2 whole entry, the tested form may be a part): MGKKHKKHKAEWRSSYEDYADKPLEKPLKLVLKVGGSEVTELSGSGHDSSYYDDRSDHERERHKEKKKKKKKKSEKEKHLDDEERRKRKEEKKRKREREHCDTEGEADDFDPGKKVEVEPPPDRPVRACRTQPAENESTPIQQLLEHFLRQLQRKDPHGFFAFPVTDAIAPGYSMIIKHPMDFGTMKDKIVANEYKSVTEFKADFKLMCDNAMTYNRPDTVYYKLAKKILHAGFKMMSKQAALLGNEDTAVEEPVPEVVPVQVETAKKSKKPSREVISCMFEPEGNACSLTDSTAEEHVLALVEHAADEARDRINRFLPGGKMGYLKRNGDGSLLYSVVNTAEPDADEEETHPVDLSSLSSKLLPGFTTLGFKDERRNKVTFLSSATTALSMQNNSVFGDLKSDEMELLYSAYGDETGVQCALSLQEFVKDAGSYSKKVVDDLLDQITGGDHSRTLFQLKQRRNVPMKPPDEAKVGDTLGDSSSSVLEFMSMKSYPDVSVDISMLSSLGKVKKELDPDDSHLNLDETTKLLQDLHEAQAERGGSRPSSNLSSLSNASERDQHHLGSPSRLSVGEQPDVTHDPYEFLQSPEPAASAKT
Sequence of BRD9 bromodomain (Q9H8M2 133-239): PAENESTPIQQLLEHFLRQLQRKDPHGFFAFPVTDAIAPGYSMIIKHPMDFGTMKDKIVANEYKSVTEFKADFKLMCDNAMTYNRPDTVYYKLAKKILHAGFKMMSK

For `COc1cc(-c2cn(C)c(=O)c3cnccc23)cc(OC)c1CN1CC(C(=O)NCCCCCNc2cccc3c2C(=O)N(C2CCC(=O)NC2=O)C3=O)C1` (stereo not drawn) [Compound D3, 1-[[2,6-dimethoxy-4-(2-methyl-1-oxo-1,2-dihydro-2,7-naphthyridin-4-yl)phenyl]methyl]-N-(5-[[2-(2,6-dioxopiperidin-3-yl)-1,3-dioxo-2,3-dihydro-1H-isoindol-4-yl]amino]pentyl) azetidine-3-carboxamide], the IC50 in assay [1] and in assay [2] was < 10 nM each time.

As to `COc1cc(-c2cn(C)c(=O)c3cnccc23)cc(OC)c1CN1CCN(C(=O)C2CC2CNC(=O)COc2ccc3c(c2)C(=O)N(C2CCC(=O)NC2=O)C3=O)CC1` (stereo not drawn) [Compound D66, N-[[2-(4-[[2,6-dimethoxy-4-(2-methyl-1-oxo-2,7-naphthyridin-4-yl)phenyl]methyl]piperazine-1-carbonyl)cyclopropyl]methyl]-2-[[2-(2,6-dioxopiperidin-3-yl)-1,3-dioxoisoindol-5-yl]oxy]acetamide formic acid], the half-maximal inhibitory concentration (IC50) in assay [1] lay in the range of 10 to 100 nM; in assay [2], 100 to 1000 nM.

For `COc1cc(-c2cn(C)c(=O)c3cnccc23)cc(OC)c1CN1CCC2(CC1)CN(C(=O)CCCCOc1cccc3c1C(=O)N(C1CCC(=O)NC1=O)C3=O)CCO2` (stereo not drawn) [Compound D40, 4-[[5-(9-[[2,6-dimethoxy-4-(2-methyl-1-oxo-2,7-naphthyridin-4-yl)phenyl]methyl]-1-oxa-4,9-diazaspiro[5.5]undecan-4-yl)-5-oxopentyl]oxy]-2-(2,6-dioxopiperidin-3-yl)isoindole-1,3-dione formic acid], the IC50 in assay [1] and in assay [2] was < 10 nM each time.

For the compound `COc1cc(-c2cn(C)c(=O)c3cnccc23)cc(OC)c1CN1CCC2(C1)CN(C(=O)CCOCCOc1ccc3c(c1)C(=O)N(C1CCC(=O)NC1=O)C3=O)C2` (stereo not drawn) [Compound D99], the IC50 in assay [1] and in assay [2] was 10 to 100 nM each time.

In the case of `COc1cc(-c2cn(C)c(=O)c3cnccc23)cc(OC)c1CN1CCC(OC2CCN(C(=O)CCOCCOc3cccc4c3C(=O)N(C3CCC(=O)NC3=O)C4=O)C2)CC1` (stereo not drawn) [Compound D114], in assay [1], the IC50 was < 10 nM. Besides, the DC50 in assay [2] is 10 to 100 nM.

On to `COc1cc(-c2cn(C)c(=O)c3cnccc23)cc(OC)c1CN1CC(C(=O)N2CCC(C3CCN(C(=O)COc4cccc5c4C(=O)N(C4CCC(=O)NC4=O)C5=O)CC3)CC2)C1` (stereo not drawn) [Compound D6, 4-[2-[1-(1-[[2,6-dimethoxy-4-(2-methyl-1-oxo-1,2-dihydro-2,7-naphthyridin-4-yl)phenyl]methyl]azetidine-3-carbonyl)-[4,4-bipiperidin]-1-yl]-2-oxoethoxy]-2-(2,6-dioxopiperidin-3-yl)-2,3-dihydro-1H-isoindole-1,3-dione formic acid], for which the half-maximal inhibitory concentration (IC50) in assay [1] and in assay [2] was < 10 nM each time.

Consider `COc1cc(-c2cn(C)c(=O)c3cnccc23)cc(OC)c1CN(C)C12CC(NC(=O)CCOCCOCCNc3cccc4c3C(=O)N(C3CCC(=O)NC3=O)C4=O)(C1)C2` (stereo not drawn) [Compound D59, N-[3-([[2,6-dimethoxy-4-(2-methyl-1-oxo-2,7-naphthyridin-4-yl)phenyl]methyl](methyl)amino)bicyclo[1.1.1]pentan-1-yl]-3-[2-(2-[[2-(2,6-dioxopiperidin-3-yl)-1,3-dioxoisoindol-4-yl]amino]ethoxy)ethoxy]propanamide formic acid], for which the IC50 in assay [1] and in assay [2] was < 10 nM throughout.

For the compound `COc1cc(-c2cn(C)c(=O)c3cnccc23)cc(OC)c1CN1CC2(CCC2NC(=O)CCOCCOc2cccc3c2C(=O)N(C2CCC(=O)NC2=O)C3=O)C1` (stereo not drawn) [Compound D84], the IC50 is 10 to 100 nM in assay [1] and > 1000 nM in assay [2].

For the compound `COc1cc(-c2cn(C)c(=O)c3cnccc23)cc(OC)c1CN1CCC(OC2CCN(C(=O)CCOCCOc3ccc4c(c3)C(=O)N(C3CCC(=O)NC3=O)C4=O)C2)CC1` (stereo not drawn) [Compound D130], the half-inhibitory concentration (IC50) in assay [1] and in assay [2] was < 10 nM throughout.

`COc1cc(-c2cn(C)c(=O)c3cnccc23)cc(OC)c1CN1CCN(C(=O)CCCOc2cccc3c2C(=O)N(C2CCC(=O)NC2=O)C3=O)CC1` (stereo not drawn) [Compound D33, 4-(4-(4-(2,6-dimethoxy-4-(2-methyl-1-oxo-1,2-dihydro-2,7-naphthyridin-4-yl)benzyl)piperazin-1-yl)-4-oxobutoxy)-2-(2,6-dioxopiperidin-3-yl)isoindoline-1,3-dione]: the IC50 in assay [1] and in assay [2] was < 10 nM in each case.

Take `COc1cc(-c2cn(C)c(=O)c3cnccc23)cc(OC)c1CN(C)CC1CC2(CCN(C(=O)CCOCCOc3ccc4c(c3)C(=O)N(C3CCC(=O)NC3=O)C4=O)CC2)O1` (stereo not drawn) [Compound D167]: the IC50 in assay [1] and in assay [2] was < 10 nM each time.

`COc1cc(-c2cn(C)c(=O)c3cnccc23)cc(OC)c1CN1CC[C@H]1C(=O)NCCN(C)CCNC(=O)COc1ccc2c(c1)C(=O)N(C1CCC(=O)NC1=O)C2=O` (stereo partly drawn) [Compound D26, N-[2-[(2-[[(2S)-1-[[2,6-dimethoxy-4-(2-methyl-1-oxo-1,2-dihydro-2,7-naphthyridin-4-yl)phenyl]methyl]azetidin-2-yl]formamido]ethyl)(methyl)amino]ethyl]-2-[[2-(2,6-dioxopiperidin-3-yl)-1,3-dioxo-2,3-dihydro-1H-isoindol-5-yl]oxy]acetamide]: the figures for the IC50 in assay [1] and in assay [2] were 10 to 100 nM and > 1000 nM, respectively.

As for `COc1cc(-c2cn(C)c(=O)c3cnccc23)cc(OC)c1CN(C)C1CCC12CCN(C(=O)CCOCCOc1ccc3c(c1)C(=O)N(C1CCC(=O)NC1=O)C3=O)CC2` (stereo not drawn) [Compound D173], the IC50 in assay [1] was 10 to 100 nM; in assay [2], < 10 nM.

Consider `COc1cc(-c2cn(C)c(=O)c3cnccc23)cc(OC)c1CN(C)CCCOCCN1CCN(c2ccc3c(c2)C(=O)N(C2CCC(=O)NC2=O)C3=O)CC1` (stereo not drawn) [Compound D70, 5-(4-[2-[3-([[2,6-dimethoxy-4-(2-methyl-1-oxo-2,7-naphthyridin-4-yl)phenyl]methyl](methyl)amino)propoxy]ethyl]piperazin-1-yl)-2-(2,6-dioxopiperidin-3-yl)isoindole-1,3-dione formic acid], for which the IC50 in assay [1] and in assay [2] was 10 to 100 nM in each case.

Turning to `COc1cc(-c2cn(C)c(=O)c3cnccc23)cc(OC)c1CN(C)CC1CC2(CCN(C(=O)CCOCCOc3cccc4c3C(=O)N(C3CCC(=O)NC3=O)C4=O)CC2)O1` (stereo not drawn) [Compound D159], in assay [1], the IC50 is < 10 nM. Also, in assay [2], the DC50 lay within 10 to 100 nM.

For the compound `COc1cc(-c2cn(C)c(=O)c3cnccc23)cc(OC)c1CN1CCC2(CC1)CC(NC(=O)CCOCCOc1ccc3c(c1)C(=O)N(C1CCC(=O)NC1=O)C3=O)C2` (stereo not drawn) [Compound D116], the IC50 in assay [1] is < 10 nM. Further, in assay [2], the DC50 fell in the range of 10 to 100 nM.

With `COc1cc(-c2cn(C)c(=O)c3cnccc23)cc(OC)c1CN1CC(C(=O)NCCCCCCCCNc2cccc3c2C(=O)N(C2CCC(=O)NC2=O)C3=O)C1` (stereo not drawn) [Compound D1, 1-[[2,6-dimethoxy-4-(2-methyl-1-oxo-1,2-dihydro-2,7-naphthyridin-4-yl)phenyl]methyl]-N-(8-[[2-(2,6-dioxopiperidin-3-yl)-1,3-dioxo-2,3-dihydro-1H-isoindol-4-yl]amino]octyl)azetidine-3-carboxamide formic acid], the 50% inhibitory concentration (IC50) is 10 to 100 nM in assay [1] and < 10 nM in assay [2].

Take `COc1cc(-c2cn(C)c(=O)c3cnccc23)cc(OC)c1CN(C)C12CC(C(=O)NCCOCCOCCNc3cccc4c3C(=O)N(C3CCC(=O)NC3=O)C4=O)(C1)C2` (stereo not drawn) [Compound D58, 3-([[2,6-dimethoxy-4-(2-methyl-1-oxo-2,7-naphthyridin-4-yl)phenyl]methyl] (methyl)amino)-N-[2-[2-(2-[[2-(2,6-dioxopiperidin-3-yl)-1,3-dioxoisoindol-4-yl]amino]ethoxy)ethoxy]ethyl]bicyclo[1.1.1]pentane-1-carboxamide]: the IC50 in assay [1] and in assay [2] was < 10 nM each time.

Take `COc1cc(-c2cn(C)c(=O)c3cnccc23)cc(OC)c1CN(C)C1CCC12CCN(C(=O)CCOCCOc1cccc3c1C(=O)N(C1CCC(=O)NC1=O)C3=O)CC2` (stereo not drawn) [Compound D110]: the 50% inhibitory concentration (IC50) in assay [1] and in assay [2] was 10 to 100 nM throughout.

As to `COc1cc(-c2cn(C)c(=O)c3cnccc23)cc(OC)c1CN1CC(C(=O)NCCOCCOCCNc2cccc3c2C(=O)N(C2CCC(=O)NC2=O)C3=O)C1` (stereo not drawn) [Compound D7, 1-[[2,6-dimethoxy-4-(2-methyl-1-oxo-1,2-dihydro-2,7-naphthyridin-4-yl)phenyl]methyl]-N-[2-[2-(2-[[2-(2,6-dioxopiperidin-3-yl)-1,3-dioxo-2,3-dihydro-1H-isoindol-4-yl]amino]ethoxy)ethoxy]ethyl]azetidine-3-carboxamide formic acid], in assay [1], the IC50 is < 10 nM. For the same compound, the DC50 in assay [2] lay within 10 to 100 nM.

As for `COc1cc(-c2cn(C)c(=O)c3cnccc23)cc(OC)c1CN1CCC(OC2CCN(C(=O)CCOCCOc3cccc4c3C(=O)N(C3CCC(=O)NC3=O)C4=O)CC2)CC1` (stereo not drawn) [Compound D97], the half-inhibitory concentration (IC50) in assay [1] is < 10 nM. Also, in assay [2], the DC50 is 10 to 100 nM.
